Results from patent US20220079912A1, “ANTICANCER FORMULATION” (University of Mississippi, priority 2018, published 2022).

Experiments:
KB (HeLa) = assay: Combination cytotoxicity with phenformin; format: cell-based; conditions: data not shown
TXNIP protein levels = assay: Western blot of TXNIP protein, T98G cell line; format: cell-based, human; conditions: FIG. 15, FIG. 17
Source text: AMPK activation has been previously shown to phosphorylate and cause the degradation of TXNIP during energy stress (13).

[1] = system: T98G human glioblastoma cells; assay: Lactic acid accumulation in cell culture medium; format: cell-based; conditions: FIG. 2B
Source text: Acidification of the cell culture medium occurs because of the enhanced use of glycolysis by transformed cells (and resulting increase in lactic acid production). This led us to investigate whether GH reduced lactic acid levels in the cell culture medium.

SK-OV3 = assay: Combination cytotoxicity with phenformin; format: cell-based; conditions: SK-OV3, data not shown
[2] = system: MDA-MB-231 breast cancer cells; assay: Colony formation assay, combination with DHEA; format: cell-based, human; conditions: MDA-MB-231, 24 h, FIG. 20
[3] = system: BNC6 patient derived Glioblastoma cells; assay: Colony formation assay, combination with DHEA; format: cell-based, human; conditions: BNC6, 24 h, FIG. 20
KHOS = assay: Combination cytotoxicity with phenformin; format: cell-based; conditions: data not shown
B16 mouse melanoma cells = assay: Cell proliferation / cell survival; format: cell-based; conditions: B16, varying concentrations, 48 hours, dose dependent, FIG. 1
Experimental: (§1) Example 1: trans-Gnetin H (GH)—Trans-Gnetin H inhibits cell proliferation. […] B16 mouse melanoma cells, T98G glioblastoma cells, and MDA-MB-231 human breast cancer cells were treated with varying concentrations of GH for 48 hours with cell survival measured. The B16 mouse melanoma cell line was the most sensitive to the anti-proliferative action of GH, perhaps due to the highly glycolytic nature of these cells and/or that they contain wild type p53.

[4] = system: MDA-MB-231 human breast cancer cells; assay: Cell proliferation / cell survival; format: cell-based; conditions: MDA-MB-231, varying concentrations, 48 hours, dose dependent, FIG. 1
Experimental: as §1

T98G glioblastoma cells = assay: Cell proliferation / cell survival; format: cell-based, human; conditions: varying concentrations, 48 hours, dose dependent, FIG. 1
Experimental: B16 mouse melanoma cells, T98G glioblastoma cells, and MDA-MB-231 human breast cancer cells were treated with varying concentrations of GH for 48 hours with cell survival measured.

Colo320DM colon cancer = assay: Colony formation assay, combination with DHEA; format: cell-based, human; conditions: 24 h, FIG. 20
[5] = system: BNC16 patient derived Glioblastoma cells; assay: Colony formation assay, combination with DHEA; format: cell-based, human; conditions: BNC16, 24 h, FIG. 20
[6] = system: cancer stem cells (CSCs) grown from BNC3 patient derived Glioblastoma cells; assay: Cell viability by Trypan Blue exclusion cell count, combination with DHEA; format: cell-based, human; conditions: 24 h, FIGS. 21A-B
PA-1 Ovarian cancer = assay: Colony formation assay, combination with DHEA; format: cell-based, human; conditions: PA-1, 24 h, FIG. 20
B16 cells = assay: Glucose transport (2-NBDG accumulation); format: cell-based, mouse; conditions: B16, treated for one hour followed by 2-NBDG for one hour
U87MG Glioma cells = assay: Colony formation assay, combination with DHEA; format: cell-based, human; conditions: 24 h, FIG. 20

## Oc1ccc(/C=C/c2c3c(cc4c2[C@H](c2cc(O)cc(O)c2)[C@@H](c2ccc(O)cc2)O4)O[C@H](c2ccc(O)cc2)[C@H]3c2cc(O)cc(O)c2)cc1 (relative stereo) [GH, trans-Gnetin H]
KB (HeLa)
  synergistic cytotoxicity with phenformin: synergistically cytotoxic
TXNIP protein levels
  TXNIP protein levels, in combination with Ph: reduction of TXNIP protein levels
TXNIP protein levels; GH 8 μM 6 hrs or 3 hrs, 2-DG 25 mM, OXA 25 mM, BPX 25 μM, DCA 25 mM, 6 hr
  TXNIP protein levels, agent alone: dramatic reduction in the levels of TXNIP protein
[1]
  lactic acid production: inhibits lactic acid production
SK-OV3
  synergistic cytotoxicity with phenformin: synergistically cytotoxic
[2]
  cytotoxicity in combination with DHEA (cell staining): cytotoxic
[3]
  cytotoxicity in combination with DHEA (cell staining): cytotoxic
KHOS
  synergistic cytotoxicity with phenformin: synergistically cytotoxic
B16 mouse melanoma cells
  inhibition of cell proliferation (cell survival): inhibits the proliferation
[4]
  inhibition of cell proliferation (cell survival): inhibits the proliferation
T98G glioblastoma cells
  inhibition of cell proliferation (cell survival): inhibits the proliferation
Colo320DM colon cancer
  cytotoxicity in combination with DHEA (cell staining): cytotoxic
[5]
  cytotoxicity in combination with DHEA (cell staining): cytotoxic
[6]
  cytotoxicity in combination with DHEA (percentage of cell viability): cytotoxic
PA-1 Ovarian cancer
  cytotoxicity in combination with DHEA (cell staining): cytotoxic
B16 cells
  effect on accumulation of 2-NBDG (glucose transport): did not influence the accumulation
U87MG Glioma cells
  cytotoxicity in combination with DHEA (cell staining): cytotoxic
